# Measured values from patent publication US20090196912A1, “Pyridinylamines” (GPC Botech AG, priority 2004, published 2009).
# How the values were obtained:
# Test in all cases: Generic kinase assay (33P-ATP, Myelin Basic Protein)
# Assay type in all cases: biochemical
# CDK1/CyclinB = CDK1/CyclinB (Homo sapiens, UniProt P06493); details: class symbol: % inhibition at 10 μM or IC50
# Protocol: (§1) In order to determine the inhibitory effect of the compounds of the subject invention on various target enzymes a generic kinase assay was established.
# (§2) Reactions were performed in 96-Well U-bottom microtiter plates (Greiner Bio-One; Frickenhausen/Germany, Cat. No. 650161), hereinafter designated “Assay Plates”. 10 μl of a solution comprising 40 μM Myelin Basic Protein (Invitrogen; Carlsbad, Calif./USA; Cat. No. 13228-010) and 4 μM ATP in three-fold concentrated Reaction Buffer (60 mM Tris-HCl, pH 7.5; 30 mM MgCl2; 3 mM dithiothreitol) were added into each well of the Assay Plate. 10 μl of serial dilutions of the compounds of the subject invention, dissolved in 4% DMSO, were then added into each well, except for Positive Control. Wells (C+ wells) and Negative Control Wells (C− wells). 10 μl of 4% DMSO without compounds were added to C+ and C− wells. 10 μl of a 500 mM solution of EDTA in water was then added to C− wells. Then 10 μl of a solution containing 50 μCi/ml Adenosine 5′-[γ-^33P]triphosphate in water was added to each well. To start the reaction 10 μl of the kinase to be assayed was added to each well. The optimal amount of kinase in the assay was determined to be the amount which yields to a turn-over of about 10% of ATP. Assay Plates were incubated for one hour at room temperature. Then 10 μl of a 500 mM solution of EDTA in water was added to each well except C− wells. Samples were now ready for measurement.
# (§3) Measurements were preformed in 96-Well MAPH-Filter Plates (Millipore; Billerica, Mass./United States; Cat. No. MAPHNOB50), hereinafter designated “Measurement Plates”. Measurement Plates were washed with 200 μl of a 0.75% H3PO4 solution per well. The H3PO4 solution was exhausted using a Millipore vacuum station. 60 μl of a 0.75% H3PO4 solution was then added into each well, followed by the transfer of 30 μl of each well from the Assay Plate into the corresponding wells of the Measurement Plate. The Measurement Plate was incubated for 30 minutes at room temperature. Thereafter each well was washed three times with 200 μl of a 0.75% H3PO4 solution using a Millipore vacuum station. 20 μl of scintillation liquid (Supermix Liquid Szintillator; Perkin Elmer, Wellesley. Mass./United States; Cat. No. 1200-439) was then added to each well of the Measurement Plate. The plate was sealed and stored for 30 minutes in the darkness before radioactivity was quantified in a MicroBeta Scintillation Counter (Perkin Elmer, Wellesley. Mass./United States).
# CDK5/p35 = CDK5/p35 (Homo sapiens, UniProt Q00535); details: class symbol: % inhibition at 10 μM or IC50
# Protocol: as §1, §2, §3
# IKKb = target: T1, IKKb (Homo sapiens, UniProt O14920); details: class symbol: % inhibition at 10 μM or IC50
# T1 sequence (O14920 1-756): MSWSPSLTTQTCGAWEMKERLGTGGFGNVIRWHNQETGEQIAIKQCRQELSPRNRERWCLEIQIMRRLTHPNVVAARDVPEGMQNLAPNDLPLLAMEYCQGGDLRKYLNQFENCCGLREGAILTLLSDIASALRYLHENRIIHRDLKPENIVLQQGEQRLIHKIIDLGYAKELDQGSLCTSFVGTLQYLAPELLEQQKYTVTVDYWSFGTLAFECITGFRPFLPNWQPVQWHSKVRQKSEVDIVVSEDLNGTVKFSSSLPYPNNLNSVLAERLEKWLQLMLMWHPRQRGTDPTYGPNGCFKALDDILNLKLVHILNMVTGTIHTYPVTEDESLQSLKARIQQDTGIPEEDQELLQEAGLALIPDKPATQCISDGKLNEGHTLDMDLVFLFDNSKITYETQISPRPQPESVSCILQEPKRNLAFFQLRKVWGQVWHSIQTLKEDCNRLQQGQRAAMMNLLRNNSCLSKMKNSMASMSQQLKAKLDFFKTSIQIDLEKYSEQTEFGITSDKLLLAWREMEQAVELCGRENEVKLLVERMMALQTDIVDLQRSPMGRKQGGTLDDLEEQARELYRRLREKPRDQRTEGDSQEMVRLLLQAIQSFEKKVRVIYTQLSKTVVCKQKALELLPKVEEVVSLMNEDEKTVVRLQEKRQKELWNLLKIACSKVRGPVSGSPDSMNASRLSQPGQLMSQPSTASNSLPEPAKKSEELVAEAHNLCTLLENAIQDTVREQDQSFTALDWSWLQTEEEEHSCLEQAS
# Protocol: as §1, §2, §3
# PDGFR = details: class symbol: % inhibition at 10 μM or IC50
# Protocol: as §1, §2, §3
# RICK = RICK (Homo sapiens, UniProt O43353); details: class symbol: % inhibition at 10 μM or IC50
# RICK, sequence (O43353 whole entry, species assumed): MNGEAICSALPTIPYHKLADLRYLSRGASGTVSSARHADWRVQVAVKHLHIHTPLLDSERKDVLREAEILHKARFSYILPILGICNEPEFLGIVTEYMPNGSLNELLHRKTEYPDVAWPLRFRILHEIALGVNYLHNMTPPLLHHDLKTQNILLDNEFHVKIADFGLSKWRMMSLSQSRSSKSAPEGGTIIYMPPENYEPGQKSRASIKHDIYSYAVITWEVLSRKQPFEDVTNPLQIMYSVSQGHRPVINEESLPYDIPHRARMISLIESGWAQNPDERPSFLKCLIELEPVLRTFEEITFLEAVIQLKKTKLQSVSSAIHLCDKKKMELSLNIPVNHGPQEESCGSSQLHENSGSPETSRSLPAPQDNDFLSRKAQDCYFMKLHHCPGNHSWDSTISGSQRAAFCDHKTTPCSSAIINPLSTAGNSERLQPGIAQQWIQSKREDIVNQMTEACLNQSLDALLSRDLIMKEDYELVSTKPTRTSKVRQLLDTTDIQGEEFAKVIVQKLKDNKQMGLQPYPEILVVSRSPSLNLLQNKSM
# Protocol: as §1, §2, §3
# Abl = Abl (Homo sapiens, UniProt P00519); details: 1 h; class symbol: % inhibition at 10 μM or IC50; read-out: Inhibitory effect on target Abl
# Abl, sequence (P00519 whole entry, species assumed): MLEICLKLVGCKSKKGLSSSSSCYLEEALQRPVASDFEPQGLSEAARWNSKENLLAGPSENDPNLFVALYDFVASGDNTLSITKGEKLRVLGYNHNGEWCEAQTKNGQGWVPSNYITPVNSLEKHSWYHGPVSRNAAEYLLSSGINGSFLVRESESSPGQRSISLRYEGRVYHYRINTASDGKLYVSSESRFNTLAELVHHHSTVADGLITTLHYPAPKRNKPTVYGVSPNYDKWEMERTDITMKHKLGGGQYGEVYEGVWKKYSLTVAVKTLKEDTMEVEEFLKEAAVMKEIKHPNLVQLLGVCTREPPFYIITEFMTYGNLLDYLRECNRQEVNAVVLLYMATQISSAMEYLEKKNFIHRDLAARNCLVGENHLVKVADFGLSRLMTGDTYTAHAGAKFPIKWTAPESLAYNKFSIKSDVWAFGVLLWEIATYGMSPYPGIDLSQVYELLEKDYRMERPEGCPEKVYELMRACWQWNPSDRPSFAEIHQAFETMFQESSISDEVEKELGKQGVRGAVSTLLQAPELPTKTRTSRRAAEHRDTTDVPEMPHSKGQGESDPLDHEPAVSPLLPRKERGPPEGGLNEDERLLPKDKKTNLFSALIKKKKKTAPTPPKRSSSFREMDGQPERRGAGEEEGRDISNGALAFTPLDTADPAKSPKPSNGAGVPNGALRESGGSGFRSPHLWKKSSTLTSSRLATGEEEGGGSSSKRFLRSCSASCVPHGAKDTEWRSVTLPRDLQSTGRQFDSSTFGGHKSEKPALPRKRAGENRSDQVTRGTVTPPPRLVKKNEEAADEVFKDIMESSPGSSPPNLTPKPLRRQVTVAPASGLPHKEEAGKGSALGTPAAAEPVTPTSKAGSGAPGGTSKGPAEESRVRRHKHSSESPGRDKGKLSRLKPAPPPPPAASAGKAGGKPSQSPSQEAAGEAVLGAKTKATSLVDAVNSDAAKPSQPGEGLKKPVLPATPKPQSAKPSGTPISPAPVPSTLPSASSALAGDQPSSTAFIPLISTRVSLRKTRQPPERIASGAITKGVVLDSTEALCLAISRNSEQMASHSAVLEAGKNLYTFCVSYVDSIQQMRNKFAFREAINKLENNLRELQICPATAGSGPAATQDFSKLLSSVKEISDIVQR
# Protocol: as §1, §2, §3
# CDK2/CyclinA = CDK2/CyclinA (Homo sapiens, UniProt P24941); details: class symbol: % inhibition at 10 μM or IC50
# Protocol: as §1, §2, §3
# EGFR = EGFR (Homo sapiens, UniProt P00533); details: class symbol: % inhibition at 10 μM or IC50
# EGFR, sequence (P00533 25-1210, species assumed): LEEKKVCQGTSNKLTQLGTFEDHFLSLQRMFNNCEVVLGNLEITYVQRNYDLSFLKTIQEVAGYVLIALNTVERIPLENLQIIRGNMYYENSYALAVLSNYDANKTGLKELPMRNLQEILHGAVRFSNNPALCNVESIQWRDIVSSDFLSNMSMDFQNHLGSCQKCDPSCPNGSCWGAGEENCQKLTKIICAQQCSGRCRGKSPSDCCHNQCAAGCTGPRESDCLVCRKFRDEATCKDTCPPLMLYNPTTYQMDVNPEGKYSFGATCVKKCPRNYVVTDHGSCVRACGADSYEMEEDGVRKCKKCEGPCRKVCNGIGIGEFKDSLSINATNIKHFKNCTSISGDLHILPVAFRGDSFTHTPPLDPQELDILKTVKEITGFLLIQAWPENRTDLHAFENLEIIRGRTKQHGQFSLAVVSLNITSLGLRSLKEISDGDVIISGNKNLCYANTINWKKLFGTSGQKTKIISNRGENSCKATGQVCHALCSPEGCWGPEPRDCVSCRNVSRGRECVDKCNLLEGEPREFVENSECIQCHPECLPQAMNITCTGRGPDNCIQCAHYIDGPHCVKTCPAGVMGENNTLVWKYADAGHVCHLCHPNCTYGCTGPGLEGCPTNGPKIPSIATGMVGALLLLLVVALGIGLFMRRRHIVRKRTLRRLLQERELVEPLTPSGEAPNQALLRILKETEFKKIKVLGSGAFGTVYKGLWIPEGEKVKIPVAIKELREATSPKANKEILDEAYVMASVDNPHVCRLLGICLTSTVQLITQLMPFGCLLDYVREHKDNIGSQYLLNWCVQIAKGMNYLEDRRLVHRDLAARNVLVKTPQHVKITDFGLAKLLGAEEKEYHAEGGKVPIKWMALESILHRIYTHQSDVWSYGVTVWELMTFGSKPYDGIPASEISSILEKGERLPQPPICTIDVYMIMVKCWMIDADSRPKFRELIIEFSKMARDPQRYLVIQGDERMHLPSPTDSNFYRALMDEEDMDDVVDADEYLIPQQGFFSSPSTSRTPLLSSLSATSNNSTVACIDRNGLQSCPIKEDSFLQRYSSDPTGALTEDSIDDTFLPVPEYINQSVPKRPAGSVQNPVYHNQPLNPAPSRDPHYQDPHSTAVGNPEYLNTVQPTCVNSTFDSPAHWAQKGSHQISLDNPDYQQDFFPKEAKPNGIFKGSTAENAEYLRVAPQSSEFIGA
# Protocol: as §1, §2, §3
# GSK-3beta = GSK-3beta (Homo sapiens, UniProt P49841); details: class symbol: % inhibition at 10 μM or IC50
# Protocol: as §1, §2, §3
# ROCK 2 = ROCK 2 (Homo sapiens, UniProt O75116); details: class symbol: % inhibition at 10 μM or IC50; for inhibition at 10 µM: 1 h, read-out: Inhibitory effect on target ROCK 2
# Protocol: as §1, §2, §3
# c-kit = c-kit (Homo sapiens, UniProt P10721); details: 1 h; class symbol: % inhibition at 10 μM or IC50; read-out: Inhibitory effect on target c-kit
# c-kit, sequence (P10721 26-976): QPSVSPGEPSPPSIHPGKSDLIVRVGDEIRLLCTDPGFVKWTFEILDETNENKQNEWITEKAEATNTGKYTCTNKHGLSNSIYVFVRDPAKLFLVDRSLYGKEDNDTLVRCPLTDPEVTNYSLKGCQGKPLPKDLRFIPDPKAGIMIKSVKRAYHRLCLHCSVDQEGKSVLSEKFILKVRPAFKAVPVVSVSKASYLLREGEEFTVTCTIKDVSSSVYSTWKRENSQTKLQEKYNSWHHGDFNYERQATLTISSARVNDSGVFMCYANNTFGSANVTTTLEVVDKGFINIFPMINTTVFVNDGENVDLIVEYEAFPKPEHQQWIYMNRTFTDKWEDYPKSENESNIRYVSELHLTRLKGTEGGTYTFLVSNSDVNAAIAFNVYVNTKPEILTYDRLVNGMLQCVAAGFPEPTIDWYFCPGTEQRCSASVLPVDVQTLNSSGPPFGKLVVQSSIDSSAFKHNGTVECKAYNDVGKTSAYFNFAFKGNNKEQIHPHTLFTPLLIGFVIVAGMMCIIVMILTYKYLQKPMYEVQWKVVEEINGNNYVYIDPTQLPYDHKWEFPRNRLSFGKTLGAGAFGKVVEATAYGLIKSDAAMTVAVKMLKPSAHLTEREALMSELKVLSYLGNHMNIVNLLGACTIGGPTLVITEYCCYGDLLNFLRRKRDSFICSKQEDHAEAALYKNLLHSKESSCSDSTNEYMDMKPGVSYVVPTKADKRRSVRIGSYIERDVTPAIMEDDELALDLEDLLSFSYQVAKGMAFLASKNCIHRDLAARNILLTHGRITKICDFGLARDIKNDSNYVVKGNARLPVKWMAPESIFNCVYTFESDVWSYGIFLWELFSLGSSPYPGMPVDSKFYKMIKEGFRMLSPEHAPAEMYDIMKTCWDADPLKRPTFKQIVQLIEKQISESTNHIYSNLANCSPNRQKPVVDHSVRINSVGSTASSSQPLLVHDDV
# Protocol: as §1, §2, §3
# cRaf = cRaf (Homo sapiens, UniProt P04049); details: 1 h; class symbol: % inhibition at 10 μM or IC50; read-out: Inhibitory effect on target cRaf
# Protocol: as §1, §2, §3
# p56Lck = p56Lck (Homo sapiens, UniProt P06239); details: 1 h; class symbol: % inhibition at 10 μM or IC50; read-out: Inhibitory effect on target p56Lck
# p56Lck, sequence (P06239 whole entry, species assumed): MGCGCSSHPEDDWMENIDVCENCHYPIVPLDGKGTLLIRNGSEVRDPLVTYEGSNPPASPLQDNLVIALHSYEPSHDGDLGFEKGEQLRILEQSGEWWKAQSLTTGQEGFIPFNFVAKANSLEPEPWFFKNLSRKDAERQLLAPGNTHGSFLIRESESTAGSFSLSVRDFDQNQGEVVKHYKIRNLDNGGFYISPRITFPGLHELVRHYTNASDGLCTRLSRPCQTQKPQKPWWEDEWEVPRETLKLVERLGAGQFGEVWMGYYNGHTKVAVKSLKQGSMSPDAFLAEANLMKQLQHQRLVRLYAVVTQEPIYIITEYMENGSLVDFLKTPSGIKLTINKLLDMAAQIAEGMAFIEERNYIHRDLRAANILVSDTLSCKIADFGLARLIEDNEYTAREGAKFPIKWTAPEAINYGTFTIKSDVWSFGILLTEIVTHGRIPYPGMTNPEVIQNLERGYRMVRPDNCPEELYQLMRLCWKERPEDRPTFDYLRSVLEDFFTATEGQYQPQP
# Protocol: as §1, §2, §3
# p38 = p38 (Homo sapiens, UniProt Q16539); details: class symbol: % inhibition at 10 μM or IC50
# Protocol: as §1, §2, §3
# c-Src = c-Src (Homo sapiens, UniProt P12931); details: class symbol: % inhibition at 10 μM or IC50
# Protocol: as §1, §2, §3
# UL97 = UL97 (Human cytomegalovirus, UniProt P16788); details: class symbol: % inhibition at 10 μM or IC50
# Protocol: as §1, §2, §3
# CDK1/CyclinB, sequence (P06493 whole entry, species assumed): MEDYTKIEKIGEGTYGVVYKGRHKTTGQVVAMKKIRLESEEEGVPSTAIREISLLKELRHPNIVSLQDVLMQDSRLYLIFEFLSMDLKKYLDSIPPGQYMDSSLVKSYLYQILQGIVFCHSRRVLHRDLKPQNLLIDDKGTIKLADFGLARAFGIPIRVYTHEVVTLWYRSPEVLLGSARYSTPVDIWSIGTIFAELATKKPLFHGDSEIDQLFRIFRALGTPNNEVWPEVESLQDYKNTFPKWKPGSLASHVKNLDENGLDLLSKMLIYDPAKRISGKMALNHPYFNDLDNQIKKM
# CDK1/CyclinB, sequence (P14635 whole entry partner, species assumed): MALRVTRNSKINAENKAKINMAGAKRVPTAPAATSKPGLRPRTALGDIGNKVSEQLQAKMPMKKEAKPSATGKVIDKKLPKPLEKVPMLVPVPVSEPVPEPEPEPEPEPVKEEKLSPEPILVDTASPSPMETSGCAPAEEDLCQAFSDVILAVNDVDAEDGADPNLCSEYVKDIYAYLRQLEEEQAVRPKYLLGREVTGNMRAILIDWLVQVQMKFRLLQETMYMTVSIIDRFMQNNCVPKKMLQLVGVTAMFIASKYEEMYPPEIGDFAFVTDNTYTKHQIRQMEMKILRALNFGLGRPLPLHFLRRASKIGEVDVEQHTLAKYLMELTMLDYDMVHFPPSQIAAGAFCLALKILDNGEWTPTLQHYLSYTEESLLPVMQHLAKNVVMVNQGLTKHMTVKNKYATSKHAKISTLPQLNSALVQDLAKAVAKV
SMILES,Inhibitory effect on target CDK1/CyclinB (CDK1/CyclinB),Inhibitory effect on target CDK5/p35 (CDK5/p35),Inhibitory effect on target IKKb (IKKb),Inhibitory effect on target PDGFR (PDGFR),Inhibitory effect on target RICK (RICK),inhibition at 10 µM (Abl) [%],Inhibitory effect on target CDK2/CyclinA (CDK2/CyclinA),Inhibitory effect on target EGFR (EGFR),Inhibitory effect on target GSK-3beta (GSK-3beta),Inhibitory effect on target ROCK 2 (ROCK 2),inhibition at 10 µM (c-kit) [%],inhibition at 10 µM (cRaf) [%],inhibition at 10 µM (p56Lck) [%],Inhibitory effect on target p38 (p38),Inhibitory effect on target c-Src (c-Src),inhibition at 10 µM (ROCK 2) [%],Inhibitory effect on target UL97 (UL97)
"CC(=O)Nc1cccc(-c2cncc(Nc3ccc(C#N)cc3)c2)c1 [Compound 205, N-{3-[5-(4-Cyano-phenylamino)-pyridin-3-yl]-phenyl}-acetamide]",A (A: 50-90% inhibition at 10 μM enzyme concentration),A (A: 50-90% inhibition at 10 μM enzyme concentration),A (A: 50-90% inhibition at 10 μM enzyme concentration),A (A: 50-90% inhibition at 10 μM enzyme concentration),C (C: IC50 measured: <1 μM),–,–,–,–,–,–,–,–,–,–,–,–
"Oc1ccc(-c2cncc(NCc3cccc(O)c3)c2)cc1 [Compound 212, 3-{[5-(4-Hydroxy-phenyl)-pyridin-3-ylamino]-methyl}-phenol]",–,–,–,A (A: 50-90% inhibition at 10 μM enzyme concentration),C (C: IC50 measured: <1 μM),50 to 90,B (B: >90% inhibition at 10 μM enzyme concentration),A (A: 50-90% inhibition at 10 μM enzyme concentration),A (A: 50-90% inhibition at 10 μM enzyme concentration),C (C: IC50 measured: <1 μM),> 90,50 to 90,> 90,–,–,–,–
"CC(=O)Nc1cccc(-c2cncc(NCc3cccc(O)c3)c2)c1 [Compound 221, N-{3-[5-(3-Hydroxy-benzylamino)-pyridin-3-yl]-phenyl}-acetamide]",–,–,–,A (A: 50-90% inhibition at 10 μM enzyme concentration),C (C: IC50 measured: <1 μM),50 to 90,–,A (A: 50-90% inhibition at 10 μM enzyme concentration),–,–,> 90,50 to 90,> 90,A (A: 50-90% inhibition at 10 μM enzyme concentration),–,–,–
"O=C(Nc1cncc(-c2cccc(O)c2)c1)c1cccc(O)c1 [Compound 234, 3-Hydroxy-N-[5-(3-hydroxy-phenyl)-pyridin-3-yl]-benzamide]",–,–,A (A: 50-90% inhibition at 10 μM enzyme concentration),B (B: >90% inhibition at 10 μM enzyme concentration),C (C: IC50 measured: <1 μM),50 to 90,–,B (B: >90% inhibition at 10 μM enzyme concentration),–,–,50 to 90,50 to 90,> 90,–,B (B: >90% inhibition at 10 μM enzyme concentration),–,–
"CC(=O)Nc1cccc(-c2cncc(Nc3ccccc3F)c2)c1 [Compound 237, N-{3-[5-(2-Fluoro-phenylamino)-pyridin-3-yl]-phenyl}-acetamide]",A (A: 50-90% inhibition at 10 μM enzyme concentration),–,A (A: 50-90% inhibition at 10 μM enzyme concentration),A (A: 50-90% inhibition at 10 μM enzyme concentration),C (C: IC50 measured: <1 μM),–,–,A (A: 50-90% inhibition at 10 μM enzyme concentration),–,–,–,–,–,–,–,–,–
"COc1cccc(-c2cncc(NCc3cccc(O)c3)c2)c1 [Compound 239, 3-{[5-(3-Methoxy-phenyl)-pyridin-3-ylamino]-methyl}-phenol]",B (B: >90% inhibition at 10 μM enzyme concentration),A (A: 50-90% inhibition at 10 μM enzyme concentration),–,B (B: >90% inhibition at 10 μM enzyme concentration),C (C: IC50 measured: <1 μM),50 to 90,C (C: IC50 measured: <1 μM),A (A: 50-90% inhibition at 10 μM enzyme concentration),–,–,–,50 to 90,50 to 90,–,B (B: >90% inhibition at 10 μM enzyme concentration),50 to 90,–
"CN(Cc1cccc(O)c1)c1cncc(-c2cccc(O)c2)c1 [Compound 241, 3-{5-[(3-Hydroxy-benzyl)-methyl-amino]-pyridin-3-yl}-phenol]",–,–,–,–,C (C: IC50 measured: <1 μM),–,–,–,–,–,–,–,–,–,–,50 to 90,C (C: IC50 measured: <1 μM)
"Nc1cccc(CNc2cncc(-c3cccc(O)c3)c2)c1 [Compound 245, 3-[5-(3-Amino-benzylamino)-pyridin-3-yl]-phenol]",–,–,–,–,C (C: IC50 measured: <1 μM),–,–,–,–,–,–,50 to 90,–,–,–,–,C (C: IC50 measured: <1 μM)
